Reference: US7951964B2, “Fluorine-containing boronic acid ester compound and method for producing the same” (Unimatec Co., Ltd., priority 2008, dated 2011)

experiment: Solubility in the fluorine-containing organic solvent 1,3-bis(trifluoromethyl)benzene (maximum amount giving a homogeneous solution, judged visually); conditions: 10 ml of 1,3-bis(trifluoromethyl)benzene, 25° C., stirred, visually measured

| Structure (SMILES) | solubility in 1,3-bis(trifluoromethyl)benzene |
| --- | --- |
| CC1(C)OB(c2cc(B3OC(C)(C)C(C)(C)O3)cc(B3OC(C)(C)C(C)(C)O3)c2)OC1(C)C [1,3,5-tris(4,4,5,5-tetramethyl-1,3,2-dioxaborolan-2-yl)benzene] | 0.20 g/10 ml solvent |
| OB(O)c1ccc(B(O)O)cc1 [1,4-benzene diboronic acid] | insoluble |
| CC1(C)OB(c2ccc(B3OC(C)(C)C(C)(C)O3)cc2)OC1(C)C [1,4-bis(4,4,5,5-tetramethyl-1,3,2-dioxaborolan-2-yl)benzene] | 0.17 g/10 ml solvent |
| CC1(C)OB(c2cc(OCCCC(F)(F)C(F)(F)C(F)(F)C(F)(F)C(F)(F)C(F)(F)F)cc(B3OC(C)(C)C(C)(C)O3)c2)OC1(C)C [Example, 1-(1H,1H,2H,2H,3H,3H-perfluorononane-1-yloxy)-3,5-bis-(4,4,5,5-tetramethyl-1,3,2-dioxaborolan-2-yl)benzene] | 5.0 g/10 ml solvent |
